Reference: PubChem BioAssay (NCI)
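Following 48 hours of exposure in 96-well plates, responses at five concentrations were used to interpolate endpoints linearly. GI50: concentration for 50% inhibition of growth. TGI: total growth inhibition.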

What was measured:
Test in all cases: growth of human tumour cells (NCI), 48 h
A498 renal = test system: A498 renal
A549 NSCLC = test system: A549 NSCLC
ACHN renal = test system: ACHN renal
BT-549 breast = test system: BT-549 breast
CAKI-1 renal = test system: CAKI-1 renal
CCRF-CEM leukemia = test system: CCRF-CEM leukemia
COLO 205 colon = test system: COLO 205 colon
DU-145 prostate = test system: DU-145 prostate
EKVX NSCLC = test system: EKVX NSCLC
HCC-2998 colon = test system: HCC-2998 colon
HCT-116 colon = test system: HCT-116 colon
HCT-15 colon = test system: HCT-15 colon
HL-60(TB) leukemia = test system: HL-60(TB) leukemia
HOP-62 NSCLC = test system: HOP-62 NSCLC
HS 578T breast = test system: HS 578T breast
HT29 colon = test system: HT29 colon
K-562 leukemia = test system: K-562 leukemia
KM12 colon = test system: KM12 colon
LOX IMVI melanoma = test system: LOX IMVI melanoma
M14 melanoma = test system: M14 melanoma
MALME-3M melanoma = test system: MALME-3M melanoma
MCF7 breast = test system: MCF7 breast
MDA-MB-231 breast = test system: MDA-MB-231 breast
MDA-MB-435 = test system: MDA-MB-435
MOLT-4 leukemia = test system: MOLT-4 leukemia
NCI-H226 lung = test system: NCI-H226 lung
NCI-H23 lung = test system: NCI-H23 lung
NCI-H460 lung = test system: NCI-H460 lung
NCI-H522 lung = test system: NCI-H522 lung
OVCAR-3 ovarian = test system: OVCAR-3 ovarian
OVCAR-4 ovarian = test system: OVCAR-4 ovarian
OVCAR-5 ovarian = test system: OVCAR-5 ovarian
PC-3 prostate = test system: PC-3 prostate
RPMI-8226 leukemia = test system: RPMI-8226 leukemia
RXF 393 renal = test system: RXF 393 renal
SF-268 CNS = test system: SF-268 CNS
SF-295 CNS = test system: SF-295 CNS
SF-539 CNS = test system: SF-539 CNS
SK-MEL-2 melanoma = test system: SK-MEL-2 melanoma
SK-MEL-28 melanoma = test system: SK-MEL-28 melanoma
SK-MEL-5 melanoma = test system: SK-MEL-5 melanoma
SK-OV-3 ovarian = test system: SK-OV-3 ovarian
SN12C renal = test system: SN12C renal
SNB-19 CNS = test system: SNB-19 CNS
SR leukemia = test system: SR leukemia
T-47D breast = test system: T-47D breast
TK-10 renal = test system: TK-10 renal
U251 CNS = test system: U251 CNS
UACC-257 melanoma = test system: UACC-257 melanoma
UACC-62 melanoma = test system: UACC-62 melanoma
UO-31 renal = test system: UO-31 renal
786-0 renal = test system: 786-0 renal
HOP-92 NSCLC = test system: HOP-92 NSCLC
IGROV1 ovarian = test system: IGROV1 ovarian
NCI/ADR-RES ovarian = test system: NCI/ADR-RES ovarian
OVCAR-8 ovarian = test system: OVCAR-8 ovarian
SNB-75 CNS = test system: SNB-75 CNS
SW-620 colon = test system: SW-620 colon

c1ccc(Sc2nc(Sc3ccccc3)nc(Sc3ccccc3)n2)cc1
TGI (A498 renal): 86.8 µM
TGI (A549 NSCLC): > 100 µM
TGI (ACHN renal): > 100 µM
TGI (BT-549 breast): > 100 µM
TGI (CAKI-1 renal): > 100 µM
TGI (CCRF-CEM leukemia): > 100 µM
TGI (COLO 205 colon): 38.7 µM
TGI (DU-145 prostate): 47.1 µM
TGI (EKVX NSCLC): > 100 µM
TGI (HCC-2998 colon): 37.8 µM
TGI (HCT-116 colon): > 100 µM
TGI (HCT-15 colon): > 100 µM
TGI (HL-60(TB) leukemia): > 100 µM
TGI (HOP-62 NSCLC): > 100 µM
TGI (HS 578T breast): 75.4 µM
TGI (HT29 colon): > 100 µM
TGI (K-562 leukemia): > 100 µM
TGI (KM12 colon): 29.4 µM
TGI (LOX IMVI melanoma): > 100 µM
TGI (M14 melanoma): > 100 µM
TGI (MALME-3M melanoma): > 100 µM
TGI (MCF7 breast): > 100 µM
TGI (MDA-MB-231 breast): > 100 µM
TGI (MDA-MB-435): > 100 µM
TGI (MOLT-4 leukemia): > 100 µM
TGI (NCI-H226 lung): 77.9 µM
TGI (NCI-H23 lung): > 100 µM
TGI (NCI-H460 lung): > 100 µM
TGI (NCI-H522 lung): > 100 µM
TGI (OVCAR-3 ovarian): 34.5 µM
TGI (OVCAR-4 ovarian): > 100 µM
TGI (OVCAR-5 ovarian): > 100 µM
TGI (PC-3 prostate): > 100 µM
TGI (RPMI-8226 leukemia): > 100 µM
TGI (RXF 393 renal): > 100 µM
TGI (SF-268 CNS): > 100 µM
TGI (SF-295 CNS): > 100 µM
TGI (SF-539 CNS): > 100 µM
TGI (SK-MEL-2 melanoma): > 100 µM
TGI (SK-MEL-28 melanoma): > 100 µM
TGI (SK-MEL-5 melanoma): > 100 µM
TGI (SK-OV-3 ovarian): > 100 µM
TGI (SN12C renal): > 100 µM
TGI (SNB-19 CNS): > 100 µM
TGI (SR leukemia): > 100 µM
TGI (T-47D breast): 45 µM
TGI (TK-10 renal): > 100 µM
TGI (U251 CNS): > 100 µM
TGI (UACC-257 melanoma): > 100 µM
TGI (UACC-62 melanoma): > 100 µM
TGI (UO-31 renal): > 100 µM

Cc1nc2cc(Nc3nc(Nc4ccc(F)cc4)nc(N4CCCC4)n3)ccc2n1Cc1ccccc1
GI50 (786-0 renal): 1.85 µM
TGI (786-0 renal): 3.46 µM
GI50 (A498 renal): 1.45 µM
TGI (A498 renal): 3.24 µM
GI50 (A549 NSCLC): 2.05 µM
TGI (A549 NSCLC): 4.63 µM
GI50 (ACHN renal): 2.19 µM
TGI (ACHN renal): 5.41 µM
GI50 (BT-549 breast): 1.88 µM
TGI (BT-549 breast): 3.5 µM
GI50 (CCRF-CEM leukemia): 2.38 µM
TGI (CCRF-CEM leukemia): 5.6 µM
GI50 (COLO 205 colon): 1.79 µM
TGI (COLO 205 colon): 3.48 µM
GI50 (DU-145 prostate): 1.87 µM
TGI (DU-145 prostate): 3.35 µM
GI50 (HCC-2998 colon): 1.93 µM
TGI (HCC-2998 colon): 3.73 µM
GI50 (HCT-116 colon): 1.66 µM
TGI (HCT-116 colon): 3.09 µM
GI50 (HCT-15 colon): 1.88 µM
TGI (HCT-15 colon): 3.99 µM
GI50 (HL-60(TB) leukemia): 2.58 µM
TGI (HL-60(TB) leukemia): 5.3 µM
GI50 (HOP-62 NSCLC): 1.74 µM
TGI (HOP-62 NSCLC): 3.45 µM
GI50 (HOP-92 NSCLC): 1.07 µM
TGI (HOP-92 NSCLC): 2.47 µM
GI50 (HS 578T breast): 2.23 µM
TGI (HS 578T breast): 6.67 µM
GI50 (HT29 colon): 1.93 µM
TGI (HT29 colon): 3.89 µM
GI50 (IGROV1 ovarian): 1.9 µM
TGI (IGROV1 ovarian): 3.48 µM
GI50 (KM12 colon): 1.86 µM
TGI (KM12 colon): 3.51 µM
GI50 (LOX IMVI melanoma): 1.84 µM
TGI (LOX IMVI melanoma): 3.36 µM
GI50 (M14 melanoma): 2.06 µM
TGI (M14 melanoma): 4.29 µM
GI50 (MALME-3M melanoma): 1.61 µM
TGI (MALME-3M melanoma): 3.17 µM
GI50 (MCF7 breast): 2.22 µM
TGI (MCF7 breast): 7.44 µM
GI50 (MDA-MB-231 breast): 1.78 µM
TGI (MDA-MB-231 breast): 3.27 µM
GI50 (MDA-MB-435): 1.62 µM
TGI (MDA-MB-435): 3.09 µM
GI50 (MOLT-4 leukemia): 2.52 µM
TGI (MOLT-4 leukemia): 5.68 µM
GI50 (NCI-H226 lung): 1.9 µM
TGI (NCI-H226 lung): 4.29 µM
GI50 (NCI-H23 lung): 2.2 µM
TGI (NCI-H23 lung): 5.31 µM
GI50 (NCI-H460 lung): 1.82 µM
TGI (NCI-H460 lung): 3.44 µM
GI50 (NCI-H522 lung): 1.69 µM
TGI (NCI-H522 lung): 4.07 µM
GI50 (NCI/ADR-RES ovarian): 1.96 µM
TGI (NCI/ADR-RES ovarian): 3.94 µM
GI50 (OVCAR-3 ovarian): 1.77 µM
TGI (OVCAR-3 ovarian): 3.28 µM
GI50 (OVCAR-4 ovarian): 1.62 µM
TGI (OVCAR-4 ovarian): 4 µM
GI50 (OVCAR-5 ovarian): 1.72 µM
TGI (OVCAR-5 ovarian): 3.42 µM
GI50 (OVCAR-8 ovarian): 2.15 µM
TGI (OVCAR-8 ovarian): 4.79 µM
GI50 (PC-3 prostate): 1.77 µM
TGI (PC-3 prostate): 4.29 µM
GI50 (RPMI-8226 leukemia): 1.86 µM
TGI (RPMI-8226 leukemia): 4.55 µM
GI50 (RXF 393 renal): 1.55 µM
TGI (RXF 393 renal): 3.09 µM
GI50 (SF-268 CNS): 1.94 µM
TGI (SF-268 CNS): 3.9 µM
GI50 (SF-295 CNS): 2.15 µM
TGI (SF-295 CNS): 4.78 µM
GI50 (SF-539 CNS): 1.79 µM
TGI (SF-539 CNS): 3.32 µM
GI50 (SK-MEL-2 melanoma): 1.69 µM
TGI (SK-MEL-2 melanoma): 3.33 µM
GI50 (SK-MEL-28 melanoma): 1.88 µM
TGI (SK-MEL-28 melanoma): 3.92 µM
GI50 (SK-MEL-5 melanoma): 1.66 µM
TGI (SK-MEL-5 melanoma): 3.09 µM
GI50 (SK-OV-3 ovarian): 2.18 µM
TGI (SK-OV-3 ovarian): 5.2 µM
GI50 (SN12C renal): 1.84 µM
TGI (SN12C renal): 3.45 µM
GI50 (SNB-19 CNS): 3.4 µM
TGI (SNB-19 CNS): 87.3 µM
GI50 (SNB-75 CNS): 1.58 µM
TGI (SNB-75 CNS): 3.45 µM
GI50 (SW-620 colon): 1.66 µM
TGI (SW-620 colon): 3.14 µM
GI50 (T-47D breast): 2.18 µM
TGI (T-47D breast): 4.94 µM
GI50 (TK-10 renal): 1.89 µM
TGI (TK-10 renal): 3.37 µM
GI50 (U251 CNS): 1.66 µM
TGI (U251 CNS): 3.36 µM
GI50 (UACC-257 melanoma): 2.32 µM
TGI (UACC-257 melanoma): 5.88 µM
GI50 (UACC-62 melanoma): 1.62 µM
TGI (UACC-62 melanoma): 2.99 µM
GI50 (UO-31 renal): 1.51 µM
TGI (UO-31 renal): 2.92 µM
